Laboratory results published in US20050042714A1, “Glycoconjugates of sialic acid derivates, methods for their production and use thereof” (priority 2001, published 2005).
Blank lines part the entries; values can stand above or below the molecule they belong to.

Legend:
HL60-I cells [1] = assay: uptake of peracetylated/esterified NeuAc: VVA and TML lectin staining by flow cytometry; type: cell-based, human; details: HL60-I cells, 0.03 to 1 mM (NeuAc 1 or 5 mM), 72 h, 0.5% DMSO
Method: Peracetylation of NeuAc only facilitates uptake if the carboxyl group is additionally esterified. Hyposialylated HL60-I cells were cultivated in the presence of indicated synthetic sialic acid analogue (stock solution 200 mM in DMSO) ranging from 0.03 to 1 mM or 0, 1 or 5 mM NeuA for 72 h with DMSO concentrations adjusted to 0.5%. Cells were stained with either directly fluorochrome-coupled lectin VVA, or biotin-coupled lectin (TML) and streptavidin-FITC for analysis by flow cytometry. Values given are relative factors of change of the mean fluorescence intensity of pretreated cells relative to untreated cells. The bars represent arithmetic means±SD (n=3). Molecular structures are given below the diagram.
Sugars are very hydrophilic and it has been shown that increasing the hydrophobicity by peracetylation of hydroxyl groups enables or facilitates uptake of disaccharides (Collins, B. E., Fralich, T. J., Itonori, S., Ichikawa, Y. and Schnaar, R. L. (2000) Glycobiology, 10, 11-20; Sarkar, A. K., Fritz, T. A., Taylor, W. H. and Esko, J. D. (1995) Proc Natl Acad Sci USA, 92, 3323-7; Sarkar, A. K., Rostand, K. S., Jain, R. K., Matta, K. L. and Esko, J. D. (1997) J Biol Chem, 272, 25608-16). For ManNAc derivatives it has been shown that peracetylation reduces required medium concentrations (Collins et al., 2000). The acetyl groups are cleaved-off intracellularly by cellular esterases (Collins et al., 2000; Sarkar et al., 1995; Sarkar et al., 1997) and the derivatives are then processed as known for the non-acetylated sugars. In order to address the question whether peracetylation also facilitates uptake of N-acetylneuraminic acid, HL60-I cells were cultivated in the presence of peracetylated NeuAc at concentrations ranging from 0.03 mM to 1 mM for 3 days. Changes in cell surface sialylation were measured by flow cytometry using Vicia Villosa agglutinin (VVA) and Tritrichomonas mobilensis lectin (TML). […] This represents a reduction in concentration by more than 16-fold and is in a similar range as reported for peracetylated ManNAc and ManNAc (Collins et al., 2000).
(§1) Lyophilized FITC-conjugated lectins Vicia villosa (VVA) was obtained from Sigma, dissolved in H2O (1 mg/ml), aliquoted and stored at −20° C. according to the manufacturer's instructions. FITC-conjugated Limax flavus agglutinin (LFA) was from EY Laboratories (San Manteo, Calif., USA) and biotin-coupled Tritrichomonas mobilensis agglutinin (TLM) from Calbiochem. Lectin staining procedure and fluorescence-activated cell scanning on a Becton Dickinson FACScan cytometer using Cellquest II software were carried out as described (Keppler, O. T., Molden-hauer, G., Oppenländer, M., Schwartz-Albiez, R., Berger, E. G., Funderud, S., and Pawlita, M. (1992) Eur J Immunol 22(11), 2777-81). Briefly, cells (3×10^5) were washed twice in cold PBS and then incubated in 100 μl PBS/0.05% NaN3, containing either fluorochrome-conjugated lectins VVA (50 μg/ml), LFA (20 μg/ml), or biotinylated TLM (20 μg/ml) for 45 min on ice in the dark. For biotinylated TLM a secondary incubation step with steptavidin-FITC (20 μg/ml) (Sigma) for 30 min on ice in the dark is required. After washing with PBS, cells were resuspended in 300 μl PBS and analyzed by flow cytometry.

HL60-I cells [2] = assay: metabolic complementation assay: lectin staining (VVA, LFA, TLM) of analogue-treated cells by flow cytometry; type: cell-based, human; details: 5 mM, 24 h; for effect on VVA binding: decrease = masking of GalNAc by sialic acid
Method: Medium supplementation with some synthetic sialic acid analogues restores cell surface sialylation in hyposialylated HL60-I cells. Cells were cultivated in the presence of indicated synthetic sialic acid analogue (5 mM) for 24 h and stained with either directly fluorochrome-coupled lectins (VVA, LFA) or biotin-coupled lectin (TLM) and streptavidin-FITC and analyzed by flow cytometry. Values are given as “relative factor of change” (RFC) of the “mean fluorescence intensity” (MFI) of sialic acid-treated cells relative to untreated cells. The bars represent arithmetic means±SD (n^34) of one (x) or ≧two experiments.
To test whether cells can incorporate synthetic sialic acid analogues from the culture medium, a metabolic complementation assay was performed on endogenously hyposialylated, UDP-GlcNAc-2-epimerase-deficient HL60-I cells.
Cells were cultivated for 24 h in the presence of one of 16 different synthetic sialic acid analogues, carrying distinct C5 or C9 modifications (FIG. 1), and subsequently, changes in cell surface sialylation were assessed by flow cytometry using three fluorochrome-conjugated sialic acid-sensitive lectins. Vicia villosa agglutinin (VVA) detects GalNAc residues, and its binding sites can be masked by the addition of terminal sialic acid residues.
In sugar supplementation assays, cells seeded at 5×10^5 cells/ml in culture medium buffered with 40 mM HEPES (pH 7.2) were cultivated for 24 h in the presence or absence of 5 mM sialic acids (stocks of 100 mM dissolved in H2O, stored at 4° C.).
as §1

[3] = tested on: B-lymphotropic papovavirus (LPV) in BJA-B K88 cells; assay: LPV infection of analogue-treated normally sialylated cells (VP1 ELISA); type: cell-based, human
Method: Changes in permissivity for the sialic acid-dependent B-lymphotropic papovavirus (LPV) in hyposialylated (K20) and normally sialylated (K88) BJA-B cells after treatment with sialic acid analogues. Cells were treated with analogues or NeuAc for 3d. 50 h post LPV inoculation the LPV infection was quantified (A) by detecting the amount of LPV VP1 in cell lysates relative to the total protein content by ELISA and (B) by indirect immunofluorescence microscopy as percentage of LPV T-antigen-positive BJA-B K20 cells. A, values are given as arithmetic means±SD of three independent experiments. B, representatives of three experiments are shown. DAPI-staining (left) indicates the total amount of cells in the section, on the right LPV T-antigen positive cells are shown with the average percentage given beside. […]
BJA-B subclones were infected with the B-lymphotropic papovavirus (LPV) as described (Keppler, O. T., Herrmann, M., Oppenländer, M., Meschede, W., and Pawlita, M. (1994) J Virol 68(11), 6933-9). […] LPV infection was quantified by indirect immunofluorescence microscopy as percentage of LPV T-antigen positive cells and the amount of LPV VP1 in cell lysates was determined by ELISA relative to the total protein extracted.

[4] = tested on: B-lymphotropic papovavirus (LPV) in BJA-B K20 cells; details: NeuAc treatment, stated as known; cited from earlier work
[5] = stability under physiological conditions; type: physicochemical; details: most likely hydrolysed to NeuAc in the cytoplasm
BJA-B K20 cells = assay: HPLC of membrane-associated sialic acids from analogue-treated cells; type: cell-based, human; details: serum-free, 5 mM, 48 h
Method: Sialic acid analogues are incorporated in cell surface glycoconjugates. HPLC chromatograms of DMB-derivatised sialic acids hydrolysed from glycoproteins of sialic acid analogue-treated BJA-B K20 cells. (A) standards, (B) untreated cells, (C) cells cultivated in 5-N-fluoroacNeu, (D) cells cultivated in 9-iodo-NeuAc. Peaks were identified as follows: NeuGc (internal standard), NeuAc, 5-N-fluoroac-Neu, 9-iodo-NeuAc, Na-pyruvate (internal standard). Internal standards were added to each sample.
To confirm that synthetic sialic acid analogues supplementing the medium were taken up and metabolically incorporated as analogues into surface sialoglyco-conjugates the membrane-associated sialic acid fraction was analyzed by High Performance Liquid Chromatography (HPLC). […]
To confirm that the modifications are still present after incorporation into glycoconjugates sialic acids were cleaved off cell surfaces and analyzed by HPLC. […] Sialic acids derivation was performed according to a method as given below and samples were analyzed on a reversed-phase C18 column as described (Keppler, O. T., Stehling, P., Herrmann, M., Kayser, H., Grunow, D., Reutter, W., and Pawlita, M. (1995) J Biol Chem 270(3), 1308-14).

CD75s in BJA-B K20 cells = assay: de novo expression of sialoglycan CD75s by indirect immunofluorescence (antibody HH2); type: cell-based, human; details: serum-free, 5 mM, 0-6 h
Method: Kinetics of 9-iodo-NeuAc-induced expression of sialoglycan CD75s in BJA-B K20 cells in comparison with its precursor 6-iodo-ManNAc. Cells were cultivated under serum-free conditions for at least 7 d and then either ManNAc, 6-iodo-ManNAc, 9-iodo-NeuAc or NeuAc (each 5 mM) was added. The de novo expression of CD75s was monitored at the indicated time points by indirect immunofluorescence using fixed and permeabilized cells. Representative confocal pictures of two independent experiments are shown.
The superiority of biosynthetic incorporation of sialic acid variants by NeuAc derivatives over derivatized ManNAc precurors was shown by directly comparing 9-iodo-NeuAc and the corresponding 6-iodo-ManNAc. K20 cells cultivated under serum-free conditions were incubated for 0-6 h with either 9-iodo-NeuAc or 6-iodo-ManNAc prior to analysis of CD75s expression. CD75s is an α-2,6 sialylated cell surface antigen of mature B-lymphocytes which is not detectable with the monoclonal antibody HH2 in K20 cells cultured in the absence of serum. […] We conclude that presentation of C9-modified sialic acids on the cell surface is only possible by medium supplementation with sialic acid analogues, but not with ManNAc analogues. […]

SMILES: CC(=O)N[C@H]1[C@H]([C@H](O)[C@H](O)CO)OC(O)(C(=O)O)C[C@@H]1O (stereo partly drawn) [NeuAc, N-acetyl neuraminic acid, reference compound]
effect on cell surface sialylation (VVA and TML binding) (HL60-I cells [1]): significant changes in lectin binding | increase of LFA binding (relative factor of change of mean fluorescence intensity vs untreated cells) (HL60-I cells [2]): 9.5 fold | increase of TLM binding (relative factor of change of mean fluorescence intensity vs untreated cells) (HL60-I cells [2]): 4.8 fold | effect on VVA binding (HL60-I cells [2]): decreased markedly | LPV-permissivity [3]: did not change permissivity significantly | cells infected by LPV [4]: about 17%

stability under physiological conditions [5]: unstable under physiological conditions
SMILES: COC(=O)C1(O)C[C@H](O)[C@@H](NC(C)=O)[C@H]([C@H](O)[C@H](O)CO)O1 (stereo partly drawn) [analogue o, methyl N-acetyl neuraminate]
effect on cell surface sialylation (VVA and TML binding) (HL60-I cells [1]): did not affect uptake | effect on LFA binding (HL60-I cells [2]): increased binding of LFA | effect on TLM binding (HL60-I cells [2]): increased binding | effect on VVA binding (HL60-I cells [2]): significantly decreased VVA-binding | effect on LFA binding (HL60-I cells [2]; listed as NeuAc-Me-Ester): very similar to those of NeuAc | effect on TLM binding (HL60-I cells [2]; listed as NeuAc-Me-Ester): very similar to those of NeuAc

SMILES: CC(=O)N[C@H]1[C@H]([C@H](O)[C@H](O)CI)OC(O)(C(=O)O)C[C@@H]1O (stereo partly drawn) [analogue f, 5-N-acetyl-9-deoxy-9-iodo-neuraminic acid]
effect on LFA binding (HL60-I cells [2]): increased binding of LFA | effect on TLM binding (HL60-I cells [2]): increased binding | increase of LFA binding (relative factor of change of mean fluorescence intensity vs untreated cells) (HL60-I cells [2]): 19.2 fold | increase of TLM binding (relative factor of change of mean fluorescence intensity vs untreated cells) (HL60-I cells [2]): 6.4 fold | effect on VVA binding (HL60-I cells [2]): significantly decreased VVA-binding | share of membrane-associated sialic acids consisting of the analogue (BJA-B K20 cells): 86.1% | time to strong intracellular CD75s signal (CD75s in BJA-B K20 cells): ≤ 1 h

SMILES: CC(=O)N[C@@H]1C(O)O[C@H](CI)[C@@H](O)[C@@H]1O (stereo partly drawn) [6-iodo-ManNAc, reference compound]
effect on CD75s expression within 6 h (CD75s in BJA-B K20 cells): did not show any effect
